Biological target: T1, CltA (formerly XtrG; CltA::GFP) (Aspergillus nidulans, UniProt Q5ATN3)
T1 construct: gene ANIA_08347; full-length ORF from cDNA, GFP fusion, expressed in S. cerevisiae SC9721 with N. crassa beta-glucosidase gh1-1; plasma membrane
Assay: growth complementation of S. cerevisiae SC9721 gh1-1 on cellobiose
Assay type: cell-based
Settings: 0.1-2 % cellobiose as sole carbon source, 30 °C; intracellular beta-glucosidase gh1-1 coexpressed

T1 sequence (Q5ATN3 entry or part of it): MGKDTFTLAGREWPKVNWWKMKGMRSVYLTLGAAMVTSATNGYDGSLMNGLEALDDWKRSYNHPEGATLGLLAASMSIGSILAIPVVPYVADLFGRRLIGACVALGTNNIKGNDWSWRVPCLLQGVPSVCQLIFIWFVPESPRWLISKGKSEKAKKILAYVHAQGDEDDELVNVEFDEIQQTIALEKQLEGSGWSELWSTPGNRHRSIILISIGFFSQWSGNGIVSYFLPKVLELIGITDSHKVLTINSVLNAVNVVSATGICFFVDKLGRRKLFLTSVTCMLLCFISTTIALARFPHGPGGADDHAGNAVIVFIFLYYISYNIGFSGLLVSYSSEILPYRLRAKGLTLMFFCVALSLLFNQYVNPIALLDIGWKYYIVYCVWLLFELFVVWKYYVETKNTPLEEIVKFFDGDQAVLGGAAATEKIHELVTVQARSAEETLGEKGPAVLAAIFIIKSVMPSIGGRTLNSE

For `OC[C@H]1O[C@@H](O[C@H]2[C@H](O)[C@@H](O)C(O)O[C@@H]2CO)[C@H](O)[C@@H](O)[C@@H]1O` (stereo partly shown) [cellobiose], the “growth complementation of S. cerevisiae SC9721 gh1-1 on cellobiose” value was “CltA, and to a lesser extent CltB, is able to transport cellobiose”.
